Assay [1] concerns the target T1, F508delCFTR in primary hBE cells with F508del/F508del CFTR mutation (Homo sapiens, UniProt P13569, DEL508-508).
T1 construct: cells isolated from CF patients with the homozygous mutation; endogenous in cells; host or cells: primary human bronchial epithelial (hBE) cells from F508del/F508del CF patients
The experiment in a line: Transepithelial Clamp Circuit on Human Bronchial Epithelial Cells Conductance Assay (hBE-TECC). To be noted: for EC50: primary hBE cells F508del/F508del, 18-24 hours at 37° C., equivalent short circuit current, 6 concentrations. The format is cell-based. The method, boiled down: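 Primary F508del/F508del hBE cells grown 35 days at air-liquid interface, treated basolaterally with correctors 18-24 h at 37° C. Ieq (Vt/Rt) at 36.5° C, pH 7.4, after benzamil, forskolin 10 μM, control potentiator, bumetanide; 6 concentrations normalized to DMSO and 3 μM positive-control corrector, EC50 by 4-parameter fit.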

Assay [2] addresses T2, F508delCFTR cell surface expression in CFBE41o-F508delCFTR-HRP cells (Homo sapiens, UniProt P13569, DEL508-508).
T2 construct: fused on or other part: Horseradish peroxidase (HRP) reporter inserted in the fourth exofacial (extracellular) loop of CFTR; expression is doxycycline-inducible
In words: Cell Surface Expression-Horse Radish Peroxidase (CSE-HRP) Assay. The format is cell-based. To be noted: for EC50: CFBE41o-F508delCFTR-HRP cells, 18-24 hours at 33° C., 8-point curve, highest concentration 20 μM; for Maximum % activity (%): maximum at any tested concentration, normalized to on-plate positive control (3 μM). The essentials:
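CFBE41o- cells with HRP-tagged F508delCFTR, expression induced by 0.5 μg/mL doxycycline for 72 h at 37 °C, then compound for 18-24 h at 33 °C (8-point, 3-fold, top 20 μM). Surface HRP measured by luminol luminescence; % activity normalised to 3 μM positive-control corrector; EC50 from variable-slope sigmoidal fit, three replicate plates.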

Where [3] appears, read: relative to positive control (3 μM) coupled with control potentiator.

T2 sequence (P13569 with tags, fused parts or gaps DEL508-508 limits assumed): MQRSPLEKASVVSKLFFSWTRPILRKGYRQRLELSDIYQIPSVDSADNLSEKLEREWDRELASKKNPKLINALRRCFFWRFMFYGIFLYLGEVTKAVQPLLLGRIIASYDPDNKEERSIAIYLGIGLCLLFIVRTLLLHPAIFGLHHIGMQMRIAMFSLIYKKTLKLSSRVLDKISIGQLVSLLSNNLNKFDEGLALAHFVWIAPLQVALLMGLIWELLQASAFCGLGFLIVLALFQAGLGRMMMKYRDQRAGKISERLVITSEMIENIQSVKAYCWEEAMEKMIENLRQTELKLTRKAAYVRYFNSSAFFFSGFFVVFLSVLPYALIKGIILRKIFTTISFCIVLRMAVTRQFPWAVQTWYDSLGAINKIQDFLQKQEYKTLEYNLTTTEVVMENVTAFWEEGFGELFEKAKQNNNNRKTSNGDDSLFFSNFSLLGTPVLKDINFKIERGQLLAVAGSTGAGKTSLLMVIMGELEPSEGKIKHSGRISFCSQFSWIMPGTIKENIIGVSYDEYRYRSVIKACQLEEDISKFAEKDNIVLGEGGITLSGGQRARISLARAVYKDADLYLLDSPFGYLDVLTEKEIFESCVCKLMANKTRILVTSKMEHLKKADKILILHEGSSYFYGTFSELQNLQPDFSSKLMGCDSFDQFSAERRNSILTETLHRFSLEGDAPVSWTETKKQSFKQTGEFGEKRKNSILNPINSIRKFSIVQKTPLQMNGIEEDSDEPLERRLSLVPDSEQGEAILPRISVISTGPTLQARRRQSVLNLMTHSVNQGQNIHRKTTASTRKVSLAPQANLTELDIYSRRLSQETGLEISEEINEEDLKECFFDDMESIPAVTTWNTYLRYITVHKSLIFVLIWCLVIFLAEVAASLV
T2 sequence (P13569 919-1480 limits assumed, stated change not applied): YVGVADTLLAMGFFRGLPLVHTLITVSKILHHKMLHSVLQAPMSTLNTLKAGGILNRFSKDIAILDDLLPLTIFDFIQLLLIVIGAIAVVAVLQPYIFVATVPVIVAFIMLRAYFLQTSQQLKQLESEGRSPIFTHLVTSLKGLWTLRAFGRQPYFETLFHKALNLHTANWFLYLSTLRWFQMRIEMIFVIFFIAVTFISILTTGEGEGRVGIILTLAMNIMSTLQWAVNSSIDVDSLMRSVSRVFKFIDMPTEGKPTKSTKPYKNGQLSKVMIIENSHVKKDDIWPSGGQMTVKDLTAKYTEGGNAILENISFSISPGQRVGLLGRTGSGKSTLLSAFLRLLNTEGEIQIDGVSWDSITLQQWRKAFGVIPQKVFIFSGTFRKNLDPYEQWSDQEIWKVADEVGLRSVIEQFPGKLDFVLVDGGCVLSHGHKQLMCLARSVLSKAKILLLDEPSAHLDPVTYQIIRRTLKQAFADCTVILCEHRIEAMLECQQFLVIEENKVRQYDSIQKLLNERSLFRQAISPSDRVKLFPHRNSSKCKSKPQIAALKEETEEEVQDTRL
T1 sequence (P13569 with tags, fused parts or gaps DEL508-508): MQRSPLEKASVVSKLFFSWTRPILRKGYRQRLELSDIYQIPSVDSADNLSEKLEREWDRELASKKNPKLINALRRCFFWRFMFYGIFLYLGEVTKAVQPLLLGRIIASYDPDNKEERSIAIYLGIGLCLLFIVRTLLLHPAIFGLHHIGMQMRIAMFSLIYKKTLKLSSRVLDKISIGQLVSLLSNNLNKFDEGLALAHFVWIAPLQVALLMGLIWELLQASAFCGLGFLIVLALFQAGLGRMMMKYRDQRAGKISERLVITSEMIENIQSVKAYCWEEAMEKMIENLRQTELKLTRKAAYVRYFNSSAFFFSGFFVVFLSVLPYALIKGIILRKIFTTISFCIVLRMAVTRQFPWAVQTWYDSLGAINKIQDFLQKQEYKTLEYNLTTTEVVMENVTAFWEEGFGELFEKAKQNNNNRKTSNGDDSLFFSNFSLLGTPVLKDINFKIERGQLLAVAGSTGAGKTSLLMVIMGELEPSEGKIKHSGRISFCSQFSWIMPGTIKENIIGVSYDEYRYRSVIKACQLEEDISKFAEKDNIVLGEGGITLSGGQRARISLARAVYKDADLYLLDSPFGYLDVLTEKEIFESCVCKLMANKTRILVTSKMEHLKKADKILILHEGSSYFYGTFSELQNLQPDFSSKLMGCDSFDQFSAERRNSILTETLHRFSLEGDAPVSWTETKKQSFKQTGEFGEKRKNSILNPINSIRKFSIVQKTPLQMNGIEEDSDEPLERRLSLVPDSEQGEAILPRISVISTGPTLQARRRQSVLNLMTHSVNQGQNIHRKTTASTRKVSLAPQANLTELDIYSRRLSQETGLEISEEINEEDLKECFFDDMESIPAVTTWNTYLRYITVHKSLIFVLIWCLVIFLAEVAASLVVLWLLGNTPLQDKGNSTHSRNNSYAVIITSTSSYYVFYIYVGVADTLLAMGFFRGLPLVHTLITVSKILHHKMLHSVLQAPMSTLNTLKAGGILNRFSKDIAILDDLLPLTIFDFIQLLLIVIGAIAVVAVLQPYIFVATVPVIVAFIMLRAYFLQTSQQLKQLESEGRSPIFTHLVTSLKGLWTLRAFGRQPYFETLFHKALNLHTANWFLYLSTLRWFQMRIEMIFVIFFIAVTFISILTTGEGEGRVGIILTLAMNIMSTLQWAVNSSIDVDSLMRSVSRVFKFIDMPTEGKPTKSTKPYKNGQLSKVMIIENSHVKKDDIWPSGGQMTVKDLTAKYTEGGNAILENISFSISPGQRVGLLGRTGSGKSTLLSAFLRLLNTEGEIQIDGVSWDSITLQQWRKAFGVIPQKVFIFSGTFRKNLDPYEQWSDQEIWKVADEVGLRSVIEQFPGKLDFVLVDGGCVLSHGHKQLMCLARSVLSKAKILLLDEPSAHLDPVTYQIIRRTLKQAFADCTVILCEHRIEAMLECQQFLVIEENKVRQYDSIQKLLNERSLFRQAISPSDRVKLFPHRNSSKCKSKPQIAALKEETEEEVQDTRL

For orientation: EC50 means the midpoint of the concentration-response curve. Take `C[C@]1(C(=O)Nc2cc(C3CC3)nn(-c3ccc(C(=O)O)cc3)c2=O)COc2cc3c(cc21)OC(F)(F)O3` [Example 32, 4-[3-cyclopropyl-5-{[(7R)-2,2-difluoro-7-methyl-6,7-dihydro-2H-furo[2,3-f][1,3]benzodioxole-7-carbonyl]amino}-6-oxopyridazin-1(6H)-yl]benzoic acid]: in assay [1] (testing concentration 3 μM), the “Maximum % activity (%)” value was found to be 51%. Also, in assay [2], the midpoint of the response, the EC50, lay at 880 nM and the “Maximum % activity (%)” value is 144%.

With `CC1(C(=O)N[C@@H]2C[C@H](c3cccc(C(=O)O)c3)Oc3ccccc32)COc2cc3c(cc21)OC(F)(F)O3` (stereo partly drawn) [Example 21, 3-{(2R,4R)-4-[(2,2-difluoro-7-methyl-6,7-dihydro-2H-furo[2,3-f][1,3]benzodioxole-7-carbonyl)amino]-3,4-dihydro-2H-1-benzopyran-2-yl}benzoic acid], the EC50 in assay [1] turned out to be 468 nM; in assay [2] it was 1260 nM. For the same molecule, the “Maximum % activity (%)” value stood at 94% in assay [1] (setting [3]) and 162% in assay [2].

Take `COc1ccc2c(c1)O[C@@H]([C@H]1CC[C@H](C(=O)O)CC1)C[C@H]2NC(=O)[C@@]1(C)CCc2cc3c(cc21)OC(F)(F)O3` [Example 168, trans-4-[(2R,4R)-4-{[(5S)-2,2-difluoro-5-methyl-6,7-dihydro-2H,5H-indeno[5,6-d][1,3]dioxole-5-carbonyl]amino}-7-methoxy-3,4-dihydro-2H-1-benzopyran-2-yl]cyclohexane-1-carboxylic acid]: the EC50 in assay [1] was 43 nM; in assay [2], 161 nM. For the same molecule, the entries for the “Maximum % activity (%)” value in assay [1] (setting [3]) and in assay [2] were 101% and 127%, respectively.

For the molecule `COc1ccc2c(c1)O[C@@H](c1ccc(C(=O)N3C[C@@H](O)[C@H](O)C3)cn1)C[C@H]2NC(=O)[C@@]1(C)COc2cc3c(cc21)OC(F)(F)O3` [Example 248, (7R)—N-[(2R,4R)-2-{5-[(3R,4R)-3,4-dihydroxypyrrolidine-1-carbonyl]pyridin-2-yl}-7-methoxy-3,4-dihydro-2H-1-benzopyran-4-yl]-2,2-difluoro-7-methyl-6,7-dihydro-2H-furo[2,3-f][1,3]benzodioxole-7-carboxamide], the EC50 in assay [1] stood at 32 nM; in assay [2], 90 nM. Further, the “Maximum % activity (%)” value in assay [1] (setting [3]) is recorded as 105%; in assay [2], 116%.

As for `C[C@]1(C(=O)Nc2cc3cc(C4(CO)CC4)n(C[C@@H](O)CO)c3cc2F)COc2cc3c(cc21)OC(F)(F)O3` [Example 136, (7R)—N-{1-[(2R)-2,3-dihydroxypropyl]-6-fluoro-2-[1-(hydroxymethyl)cyclopropyl]-1H-indol-5-yl}-2,2-difluoro-7-methyl-6,7-dihydro-2H-furo[2,3-f][1,3]benzodioxole-7-carboxamide], the results for the EC50 in assay [1] and in assay [2] were 745 nM and 910 nM, respectively. The “Maximum % activity (%)” value in assay [1] (setting [3]) is on record as 48%; in assay [2], 99%.

For `COc1ccc2c(c1)OC(c1ccc(OC[C@@H](O)CO)nn1)C[C@H]2NC(=O)[C@@]1(C)COc2cc3c(cc21)OC(F)(F)O3` (stereo partly drawn) [Example 252, (7R)—N-[(4R)-2-{6-[(2S)-2,3-dihydroxypropoxy]pyridazin-3-yl}-7-methoxy-3,4-dihydro-2H-1-benzopyran-4-yl]-2,2-difluoro-7-methyl-6,7-dihydro-2H-furo[2,3-f][1,3]benzodioxole-7-carboxamide], the values for the EC50 in assay [1] and in assay [2] were 32 nM and 90 nM, respectively. Moreover, the “Maximum % activity (%)” value worked out at 106% in assay [1] (setting [3]) and 110% in assay [2].

In the case of `COc1ccc2c(c1)O[C@@H](c1ccc(C(=O)O)cc1)C[C@H]2NC(=O)C1(C)COc2c1ccc1c2OC(F)(F)O1` (stereo partly drawn) [Example 39, 4-{(2R,4R)-4-[(2,2-difluoro-6-methyl-6,7-dihydro-2H-furo[2,3-e][1,3]benzodioxole-6-carbonyl)amino]-7-methoxy-3,4-dihydro-2H-1-benzopyran-2-yl}benzoic acid], in assay [1] (testing concentration 3 μM), the “Maximum % activity (%)” value was found to be 47%. Moreover, in assay [2], the EC50 came to 1260 nM and the “Maximum % activity (%)” value is listed as 106%.

The values are drawn from patent US9840513B2 (AbbVie S.à.r.l., priority 2015, dated 2017).
